The values below come from paper PMC6340895 (Protein & Cell, 2019).

In data set [1] the test system is LASV. To be noted: cited from earlier work.
A short description of data set [2]: in vitro.
Data set [3] has as its system pseudotype of GTOV, JUNV, MACV, SABV, CHAPV, LCMV, LUJV, MOPV, EBOV, and MARV. The data set is classed as cell-based.
Data set [4] has as its system CHAPVpv. Put plainly: microbe, parasite or virus in culture. The data set is classed as cell-based, Chapare virus (CHAPV). To be noted: Mammarenavirus chapareense, read-out: CHAPVpv IC50.
Data set [5] relates to JUNVpv. Put plainly: organism not typed. It is filed as cell-based, Junín virus (JUNV). To be noted: read-out: JUNVpv IC50.
Data set [6] has as its system SABVpv. The data set can be described thus: organism not typed. The data set is classed as cell-based, Sabiá virus (SABV). The note with it: read-out: SABVpv IC50.
In data set [7] the test system is TfR1. It is filed as cell-based.
Data set [8] relates to pseudotype of NW pathogenic arenaviruses. It is filed as cell-based.

Bounds are passed on as bounds.

In the case of `C/C(=N\NC(=O)C1CC1c1ccccc1)c1ccc(NC(=O)c2ccco2)cc1` (stereo not shown) [ST-161], the Antiviral specificity entry in data set [1] is given as “LASV specific”. As to `C/C(=N\NC(=O)CCc1ccccc1)c1ccc(NC(=O)c2ccco2)cc1` [compound 3, O=C(CCC1=CC=CC=C1)N/N=C(C)/C2=CC=C(NC(C3=CC=CO3)=O)C=C2], the CC50 in data set [2] was > 30 µM. Still for that read-out and setting: as for `C/C(=N\NC(=O)Cc1ccccc1)c1ccc(NC(=O)c2ccco2)cc1` [compound 7, O=C(CC1=CC=CC=C1)N/N=C(C)/C2=CC=C(NC(C3=CC=CO3)=O)C=C2], the figure is > 30 µM; as for `C/C(=N\NC(=O)Cc1ccc(Cl)cc1Cl)c1ccc(NC(=O)c2ccco2)cc1` [compound 8, O=C(CC1=C(Cl)C=C(Cl)C=C1)N/N=C(C)/C2=CC=C(NC(C3=CC=CO3)=O)C=C2], > 30 µM; as for `C/C(=N\NC(=O)CCc1ccc(C)cc1)c1ccc(NC(=O)c2ccco2)cc1` [compound 9, O=C(CCC1=CC=C(C)C=C1)N/N=C(C)/C2=CC=C(NC(C3=CC=CO3)=O)C=C2], > 30 µM. On the same count and under the same terms, as for `C/C(=N\NC(=O)CCc1ccccc1F)c1ccc(NC(=O)c2ccco2)cc1` [compound 10, O=C(CCC1=C(F)C=CC=C1)N/N=C(C)/C2=CC=C(NC(C3=CC=CO3)=O)C=C2], the figure is > 30 µM; as for `C/C(=N\NC(=O)CCc1ccccc1C)c1ccc(NC(=O)c2ccco2)cc1` [compound 20, O=C(CCC1=C(C)C=CC=C1)N/N=C(C)/C2=CC=C(NC(C3=CC=CO3)=O)C=C2], > 30 µM.

With `C/C(=N\NC(=O)CCc1cccc(C)c1)c1ccc(NC(=O)c2ccco2)cc1` [compound 21, O=C(CCC1=CC(C)=CC=C1)N/N=C(C)/C2=CC=C(NC(C3=CC=CO3)=O)C=C2], in data set [3], the “Antiviral specificity across pseudotype panel” value is “largely maintained LASV specificity”. Also, the CC50 in data set [2] is > 30 µM. Regarding `COc1ccc(CCC(=O)N/N=C(\C)c2ccc(NC(=O)c3ccco3)cc2)cc1` [compound 22, O=C(CCC1=CC=C(OC)C=C1)N/N=C(C)/C2=CC=C(NC(C3=CC=CO3)=O)C=C2], the CC50 in data set [2] was > 30 µM. For the compound `C/C(=N\NC(=O)CCCc1ccc(C)cc1)c1ccc(NC(=O)c2ccco2)cc1` [compound 23, O=C(CCCC1=CC=C(C)C=C1)N/N=C(C)/C2=CC=C(NC(C3=CC=CO3)=O)C=C2], in data set [2], the CC50 is > 30 µM. Consider `C/C(=N\NC(=O)CCc1ccc([N+](=O)[O-])cc1)c1ccc(NC(=O)c2ccco2)cc1` [compound 24, O=C(CCC1=CC=C([N+]([O-])=O)C=C1)N/N=C(C)/C2=CC=C(NC(C3=CC=CO3)=O)C=C2], for which the CC50 in data set [2] is > 30 µM. Same read-out and setting: as for `C/C(=N\NC(=O)CCc1cccc([N+](=O)[O-])c1)c1ccc(NC(=O)c2ccco2)cc1` [compound 25, O=C(CCC1=CC([N+]([O-])=O)=CC=C1)N/N=C(C)/C2=CC=C(NC(C3=CC=CO3)=O)C=C2], the figure is > 30 µM. The same measure, in the same setting: for `C/C(=N\NC(=O)CCc1ccc(F)cc1)c1ccc(NC(=O)c2ccco2)cc1` [compound 26, O=C(CCC1=CC=C(F)C=C1)N/N=C(C)/C2=CC=C(NC(C3=CC=CO3)=O)C=C2] the value was > 30 µM; for `C/C(=N\NC(=O)CCCCc1ccccc1)c1ccc(NC(=O)c2ccco2)cc1` [compound 27, O=C(CCCCC1=CC=CC=C1)N/N=C(C)/C2=CC=C(NC(C3=CC=CO3)=O)C=C2], > 30 µM. Still for that read-out and setting: for `COc1ccc(CCC(=O)N/N=C(\C)c2ccc(NC(=O)c3ccco3)cc2)c(OC)c1` [compound 28, O=C(CCC1=C(OC)C=C(OC)C=C1)N/N=C(C)/C2=CC=C(NC(C3=CC=CO3)=O)C=C2] the value was > 30 µM. As to `C/C(=N\NC(=O)CCc1ccc(Br)cc1)c1ccc(NC(=O)c2ccco2)cc1` [compound 29, O=C(CCC1=CC=C(Br)C=C1)N/N=C(C)/C2=CC=C(NC(C3=CC=CO3)=O)C=C2], the “Antiviral specificity across pseudotype panel” value in data set [3] was “largely maintained LASV specificity”. For the same compound, in data set [2], the CC50 is > 30 µM. As to `C/C(=N\NC(=O)CCc1ccccc1C(F)(F)F)c1ccc(NC(=O)c2ccco2)cc1` [compound 30, O=C(CCC1=C(C(F)(F)F)C=CC=C1)N/N=C(C)/C2=CC=C(NC(C3=CC=CO3)=O)C=C2], the CC50 in data set [2] was > 30 µM. Turning to `COc1ccc(CC(=O)N/N=C(\C)c2ccc(NC(=O)c3ccco3)cc2)cc1` [compound 54, O=C(CC1=CC=C(OC)C=C1)N/N=C(C)/C2=CC=C(NC(C3=CC=CO3)=O)C=C2], in data set [2], the CC50 is > 30 µM.

For the compound `C/C(=N\NC(=O)CCCc1ccccc1)c1ccc(NC(=O)c2ccco2)cc1` [compound 56, O=C(CCCC1=CC=CC=C1)N/N=C(C)/C2=CC=C(NC(C3=CC=CO3)=O)C=C2], the CC50 in data set [2] was > 30 µM. For the compound `C/C(=N\NC(=O)CCc1ccc(C(C)(C)C)cc1)c1ccc(NC(=O)c2ccco2)cc1` [compound 57, O=C(CCC1=CC=C(C(C)(C)C)C=C1)N/N=C(C)/C2=CC=C(NC(C3=CC=CO3)=O)C=C2], the results for the IC50 in data set [4], in data set [5] and in data set [6] were 0.0898 µM, 0.096 µM and 0.244 µM, respectively. Further, the “Cell surface expression of TfR1” value in data set [7] is “did not down-regulate”. Also, in data set [8], the “Effect on binding of NW pathogenic viruses” value is given as “no effect”. In data set [2], the CC50 was > 30 µM. Take `Cc1ccc(CCC(=O)CCC(C)c2ccc(NC(=O)c3ccco3)cc2)cc1` (stereo not shown) [compound 72]: the “Antiviral specificity across pseudotype panel” value in data set [3] is reported as “largely maintained LASV specificity”.
